Where two headings read alike, the source gives them in different places.
Tests used:
CDK1/Cyclin E1 = CDK1/Cyclin E1 (Homo sapiens, UniProt P06493); assay: NanoBRET live-cell target engagement, CDK1-NanoLuc/Cyclin E1 in HEK-293; format: binding; conditions: CDK1/E1, read-out: Inhibition at 10µM (%)
CDK2/Cyclin E1 = CDK2/Cyclin E1 (Homo sapiens, UniProt P24941); assay: NanoBRET live-cell target engagement, CDK2-NanoLuc/Cyclin E1 in HEK-293; format: binding; conditions: CDK2/E1, read-out: Inhibition at 10µM (%)
CDK3/Cyclin E1 = CDK3/Cyclin E1 (Homo sapiens, UniProt Q00526); assay: NanoBRET live-cell target engagement, CDK3-NanoLuc/Cyclin E1 in HEK-293; format: binding; conditions: CDK3/E1, read-out: Inhibition at 10µM (%)
CDK4/Cyclin D1 = CDK4/Cyclin D1 (Homo sapiens, UniProt P11802); assay: NanoBRET live-cell target engagement, NanoLuc-CDK4/Cyclin D1 in HEK-293; format: binding; conditions: CDK4/D1, read-out: Inhibition at 10µM (%)
CDK5/CDK5R1 = CDK5/CDK5R1 (Homo sapiens, UniProt Q00535); assay: NanoBRET live-cell target engagement, CDK5-NanoLuc/CDK5R1 in HEK-293; format: binding; conditions: CDK5/CDK5R1, read-out: Inhibition at 10µM (%)
CDK7 = CDK7 (Homo sapiens, UniProt P50613); assay: NanoBRET live-cell target engagement, NanoLuc-CDK7 in HEK-293; format: binding; conditions: CDK7, read-out: Inhibition at 10µM (%)
CDK8/Cyclin C = CDK8/Cyclin C (Homo sapiens, UniProt P49336); assay: NanoBRET live-cell target engagement, NanoLuc-CDK8/Cyclin C in HEK-293; format: binding; conditions: CDK8/C, read-out: Inhibition at 10µM (%)
CDK9/Cyclin K = CDK9/Cyclin K (Homo sapiens, UniProt P50750); assay: NanoBRET live-cell target engagement, NanoLuc-CDK9/Cyclin K in HEK-293; format: binding; conditions: CDK9/K, read-out: Inhibition at 10µM (%)
CDK11A/Cyclin L2 = target: T1, CDK11A/Cyclin L2 (Homo sapiens, UniProt Q9UQ88); assay: NanoBRET live-cell target engagement, CDK11A-NanoLuc/Cyclin L2 in HEK-293; format: binding; conditions: read-out: Inhibition at 10µM (%), CDK11a/L2
T1 sequence (Q9UQ88 1-783): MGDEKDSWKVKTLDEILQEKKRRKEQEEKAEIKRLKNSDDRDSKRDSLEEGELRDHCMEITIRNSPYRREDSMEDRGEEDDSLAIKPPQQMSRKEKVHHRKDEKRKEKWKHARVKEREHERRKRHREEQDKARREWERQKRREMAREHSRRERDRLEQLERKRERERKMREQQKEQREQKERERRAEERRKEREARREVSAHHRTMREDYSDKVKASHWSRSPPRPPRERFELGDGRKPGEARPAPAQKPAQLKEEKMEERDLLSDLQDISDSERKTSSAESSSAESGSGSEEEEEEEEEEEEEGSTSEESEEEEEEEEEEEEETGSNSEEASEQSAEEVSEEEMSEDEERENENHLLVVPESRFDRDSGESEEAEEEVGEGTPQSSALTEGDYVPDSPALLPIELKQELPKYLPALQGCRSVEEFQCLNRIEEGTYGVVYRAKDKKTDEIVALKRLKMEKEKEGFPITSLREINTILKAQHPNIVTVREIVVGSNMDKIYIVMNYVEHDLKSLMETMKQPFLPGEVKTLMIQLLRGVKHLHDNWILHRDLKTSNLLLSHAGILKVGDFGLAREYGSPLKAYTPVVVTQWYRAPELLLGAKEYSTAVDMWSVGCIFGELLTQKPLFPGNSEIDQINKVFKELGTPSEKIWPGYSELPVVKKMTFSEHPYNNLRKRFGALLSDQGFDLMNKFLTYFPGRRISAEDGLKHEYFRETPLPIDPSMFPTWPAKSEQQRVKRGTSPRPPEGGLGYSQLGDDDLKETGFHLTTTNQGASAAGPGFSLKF

CDK11B/Cyclin L2 = CDK11B/Cyclin L2 (Homo sapiens, UniProt P21127); assay: NanoBRET live-cell target engagement, CDK11B-NanoLuc/Cyclin L2 in HEK-293; format: binding; conditions: read-out: Inhibition at 10µM (%), CDK11b/L2
CDK12/Cyclin K = CDK12/Cyclin K (Homo sapiens, UniProt Q9NYV4); assay: NanoBRET live-cell target engagement, CDK12-NanoLuc/Cyclin K in HEK-293; format: binding; conditions: read-out: Inhibition at 10µM (%), CDK12/K
CDK13/Cyclin K = CDK13/Cyclin K (Homo sapiens, UniProt Q14004); assay: NanoBRET live-cell target engagement, CDK13-NanoLuc/Cyclin K in HEK-293; format: binding; conditions: CDK13/K, read-out: Inhibition at 10µM (%)
CDK14/Cyclin Y = CDK14/Cyclin Y (Homo sapiens, UniProt O94921); assay: NanoBRET live-cell target engagement, CDK14-NanoLuc/Cyclin Y in HEK-293; format: binding; conditions: read-out: Inhibition at 10µM (%), CDK14/Y
CDK15/Cyclin Y = CDK15/Cyclin Y (Homo sapiens, UniProt Q96Q40); assay: NanoBRET live-cell target engagement, NanoLuc-CDK15/Cyclin Y in HEK-293; format: binding; conditions: read-out: Inhibition at 10µM (%), CDK15/Y
CDK16/Cyclin Y = CDK16/Cyclin Y (Homo sapiens, UniProt Q00536); assay: NanoBRET live-cell target engagement, CDK16-NanoLuc/Cyclin Y in HEK-293; format: binding; conditions: read-out: Inhibition at 10µM (%), CDK16/Y
CDK17/Cyclin Y = CDK17/Cyclin Y (Homo sapiens, UniProt Q00537); assay: NanoBRET live-cell target engagement, CDK17-NanoLuc/Cyclin Y in HEK-293; format: binding; conditions: read-out: Inhibition at 10µM (%), CDK17/Y
CDK20/Cyclin H = CDK20/Cyclin H (Homo sapiens, UniProt Q8IZL9); assay: NanoBRET live-cell target engagement, NanoLuc-CDK20/Cyclin H in HEK-293; format: binding; conditions: read-out: Inhibition at 10µM (%), CDK20/H
CDK19/Cyclin C = CDK19/Cyclin C (Homo sapiens, UniProt Q9BWU1); assay: NanoBRET live-cell target engagement, NanoLuc-CDK19/Cyclin C in HEK-293; conditions: read-out: Inhibition at 10µM (%), CDK19/C
CDK10/Cyclin L2 = CDK10/Cyclin L2 (Homo sapiens, UniProt Q15131); assay: NanoBRET live-cell target engagement, CDK10-NanoLuc/Cyclin L2 in HEK-293; conditions: read-out: Inhibition at 10µM (%), CDK10/L2

CDK3/Cyclin E1, sequence (Q00526 whole entry): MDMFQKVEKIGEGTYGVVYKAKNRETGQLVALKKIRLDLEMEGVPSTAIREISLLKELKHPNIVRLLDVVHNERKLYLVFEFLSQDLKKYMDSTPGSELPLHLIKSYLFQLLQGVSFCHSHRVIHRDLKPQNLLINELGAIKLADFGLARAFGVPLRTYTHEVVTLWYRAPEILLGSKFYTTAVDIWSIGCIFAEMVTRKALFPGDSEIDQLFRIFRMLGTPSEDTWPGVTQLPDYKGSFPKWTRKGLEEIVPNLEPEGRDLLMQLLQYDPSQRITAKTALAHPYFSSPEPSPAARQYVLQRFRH
CDK3/Cyclin E1, sequence (P24864 whole entry partner): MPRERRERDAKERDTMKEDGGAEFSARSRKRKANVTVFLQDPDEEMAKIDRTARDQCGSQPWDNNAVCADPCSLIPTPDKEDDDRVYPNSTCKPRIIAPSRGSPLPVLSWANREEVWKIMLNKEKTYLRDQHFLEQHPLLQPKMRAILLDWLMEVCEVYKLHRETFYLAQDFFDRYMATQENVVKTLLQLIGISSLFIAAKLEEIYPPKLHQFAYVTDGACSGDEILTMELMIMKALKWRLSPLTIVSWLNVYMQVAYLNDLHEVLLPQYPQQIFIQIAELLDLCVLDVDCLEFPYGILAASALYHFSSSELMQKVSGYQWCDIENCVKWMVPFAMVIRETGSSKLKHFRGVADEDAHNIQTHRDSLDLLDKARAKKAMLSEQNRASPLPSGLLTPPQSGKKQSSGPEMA
CDK12/Cyclin K, sequence (Q9NYV4 1-1481 isoform Q9NYV4-2): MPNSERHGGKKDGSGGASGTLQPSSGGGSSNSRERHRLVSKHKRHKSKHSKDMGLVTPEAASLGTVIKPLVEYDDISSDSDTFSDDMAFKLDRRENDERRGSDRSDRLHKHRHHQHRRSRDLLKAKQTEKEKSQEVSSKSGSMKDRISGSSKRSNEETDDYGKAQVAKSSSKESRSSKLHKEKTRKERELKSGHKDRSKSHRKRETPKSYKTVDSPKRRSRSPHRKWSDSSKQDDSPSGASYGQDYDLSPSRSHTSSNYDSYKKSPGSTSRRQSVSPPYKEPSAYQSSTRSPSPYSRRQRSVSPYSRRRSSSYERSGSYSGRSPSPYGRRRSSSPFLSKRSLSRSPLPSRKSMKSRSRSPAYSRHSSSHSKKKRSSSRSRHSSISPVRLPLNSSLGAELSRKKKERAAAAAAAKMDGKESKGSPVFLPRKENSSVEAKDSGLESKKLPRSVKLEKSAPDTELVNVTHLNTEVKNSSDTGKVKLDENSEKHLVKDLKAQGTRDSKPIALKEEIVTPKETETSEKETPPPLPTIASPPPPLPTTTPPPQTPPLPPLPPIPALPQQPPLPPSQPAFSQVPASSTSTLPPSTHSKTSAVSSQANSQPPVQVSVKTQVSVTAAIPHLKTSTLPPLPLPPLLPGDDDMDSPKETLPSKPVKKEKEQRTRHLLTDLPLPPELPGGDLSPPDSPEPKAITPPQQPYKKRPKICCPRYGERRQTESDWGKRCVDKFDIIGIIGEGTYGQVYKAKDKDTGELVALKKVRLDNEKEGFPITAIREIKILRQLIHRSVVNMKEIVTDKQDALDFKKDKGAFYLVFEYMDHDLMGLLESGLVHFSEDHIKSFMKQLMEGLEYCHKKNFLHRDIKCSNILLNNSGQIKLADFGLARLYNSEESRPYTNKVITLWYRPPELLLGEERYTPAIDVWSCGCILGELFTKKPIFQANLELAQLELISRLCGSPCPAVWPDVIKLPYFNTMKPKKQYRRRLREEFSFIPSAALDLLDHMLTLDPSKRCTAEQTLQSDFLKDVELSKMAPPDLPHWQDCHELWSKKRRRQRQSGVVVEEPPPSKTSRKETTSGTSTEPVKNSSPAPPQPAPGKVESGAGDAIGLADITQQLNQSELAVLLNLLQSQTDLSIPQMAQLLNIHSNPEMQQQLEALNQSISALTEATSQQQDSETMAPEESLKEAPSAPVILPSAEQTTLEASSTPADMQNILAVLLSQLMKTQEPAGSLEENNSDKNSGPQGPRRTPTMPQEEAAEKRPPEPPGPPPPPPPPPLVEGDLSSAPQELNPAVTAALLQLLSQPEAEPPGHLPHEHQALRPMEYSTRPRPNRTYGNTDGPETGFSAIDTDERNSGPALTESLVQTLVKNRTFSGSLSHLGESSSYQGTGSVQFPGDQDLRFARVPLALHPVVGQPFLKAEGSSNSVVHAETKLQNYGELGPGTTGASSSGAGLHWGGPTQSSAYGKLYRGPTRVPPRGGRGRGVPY
CDK12/Cyclin K, sequence (O75909 whole entry partner): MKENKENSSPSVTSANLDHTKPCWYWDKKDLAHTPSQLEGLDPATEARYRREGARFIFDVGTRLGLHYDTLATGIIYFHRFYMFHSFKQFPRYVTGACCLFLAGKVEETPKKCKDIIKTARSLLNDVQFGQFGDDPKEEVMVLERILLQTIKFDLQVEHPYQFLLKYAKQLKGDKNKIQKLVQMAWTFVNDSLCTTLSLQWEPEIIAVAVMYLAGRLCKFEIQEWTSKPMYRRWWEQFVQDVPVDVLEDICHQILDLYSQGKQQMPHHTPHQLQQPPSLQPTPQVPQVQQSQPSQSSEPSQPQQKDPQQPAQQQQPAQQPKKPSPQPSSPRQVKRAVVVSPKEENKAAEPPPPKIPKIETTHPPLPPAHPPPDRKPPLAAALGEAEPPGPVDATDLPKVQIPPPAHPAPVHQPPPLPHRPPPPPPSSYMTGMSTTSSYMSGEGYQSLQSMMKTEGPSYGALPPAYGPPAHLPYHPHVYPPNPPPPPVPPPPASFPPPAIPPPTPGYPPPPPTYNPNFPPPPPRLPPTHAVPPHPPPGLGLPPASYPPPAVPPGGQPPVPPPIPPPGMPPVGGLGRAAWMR
CDK15/Cyclin Y, sequence (Q96Q40 whole entry): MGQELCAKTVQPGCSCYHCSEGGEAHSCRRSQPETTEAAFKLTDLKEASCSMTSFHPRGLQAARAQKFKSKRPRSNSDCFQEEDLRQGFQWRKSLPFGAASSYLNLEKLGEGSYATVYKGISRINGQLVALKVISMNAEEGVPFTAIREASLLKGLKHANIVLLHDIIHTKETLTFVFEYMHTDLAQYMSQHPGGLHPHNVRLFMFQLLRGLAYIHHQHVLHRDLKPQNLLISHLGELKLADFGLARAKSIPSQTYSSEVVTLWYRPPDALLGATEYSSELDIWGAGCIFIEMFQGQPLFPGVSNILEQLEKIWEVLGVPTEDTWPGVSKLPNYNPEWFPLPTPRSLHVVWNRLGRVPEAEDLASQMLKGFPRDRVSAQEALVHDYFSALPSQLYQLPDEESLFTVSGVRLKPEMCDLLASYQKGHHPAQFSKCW
CDK15/Cyclin Y, sequence (Q8ND76 whole entry partner): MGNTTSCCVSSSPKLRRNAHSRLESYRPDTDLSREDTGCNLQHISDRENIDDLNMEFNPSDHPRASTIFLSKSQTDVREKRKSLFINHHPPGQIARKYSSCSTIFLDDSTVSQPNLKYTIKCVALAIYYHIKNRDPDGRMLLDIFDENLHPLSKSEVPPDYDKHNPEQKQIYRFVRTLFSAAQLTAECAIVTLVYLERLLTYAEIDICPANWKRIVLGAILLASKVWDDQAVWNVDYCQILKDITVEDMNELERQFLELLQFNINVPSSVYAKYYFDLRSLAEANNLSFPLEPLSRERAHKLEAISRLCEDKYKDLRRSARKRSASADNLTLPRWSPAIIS
CDK11B/Cyclin L2, sequence (P21127 1-782 isoform P21127-2): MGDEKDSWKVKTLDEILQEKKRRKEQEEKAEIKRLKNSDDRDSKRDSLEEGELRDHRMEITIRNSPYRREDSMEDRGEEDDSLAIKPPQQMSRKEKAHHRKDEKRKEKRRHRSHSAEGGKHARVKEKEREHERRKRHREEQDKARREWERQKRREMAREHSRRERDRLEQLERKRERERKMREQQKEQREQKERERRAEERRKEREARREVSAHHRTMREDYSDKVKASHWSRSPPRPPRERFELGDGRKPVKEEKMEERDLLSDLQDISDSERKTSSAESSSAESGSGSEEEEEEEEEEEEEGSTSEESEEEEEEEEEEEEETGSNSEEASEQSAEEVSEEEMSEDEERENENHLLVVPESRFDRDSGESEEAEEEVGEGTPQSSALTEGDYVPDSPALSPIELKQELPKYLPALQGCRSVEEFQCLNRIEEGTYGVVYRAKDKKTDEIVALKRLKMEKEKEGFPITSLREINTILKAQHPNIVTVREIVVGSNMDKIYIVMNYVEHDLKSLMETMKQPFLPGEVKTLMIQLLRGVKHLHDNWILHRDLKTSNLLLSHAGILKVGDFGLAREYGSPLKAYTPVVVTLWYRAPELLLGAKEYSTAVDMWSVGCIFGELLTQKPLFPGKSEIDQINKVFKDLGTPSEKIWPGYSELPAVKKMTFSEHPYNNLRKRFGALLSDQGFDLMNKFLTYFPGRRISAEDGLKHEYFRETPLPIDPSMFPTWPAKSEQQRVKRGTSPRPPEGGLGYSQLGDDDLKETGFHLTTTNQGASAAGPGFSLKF
CDK1/Cyclin E1, sequence (P06493 whole entry): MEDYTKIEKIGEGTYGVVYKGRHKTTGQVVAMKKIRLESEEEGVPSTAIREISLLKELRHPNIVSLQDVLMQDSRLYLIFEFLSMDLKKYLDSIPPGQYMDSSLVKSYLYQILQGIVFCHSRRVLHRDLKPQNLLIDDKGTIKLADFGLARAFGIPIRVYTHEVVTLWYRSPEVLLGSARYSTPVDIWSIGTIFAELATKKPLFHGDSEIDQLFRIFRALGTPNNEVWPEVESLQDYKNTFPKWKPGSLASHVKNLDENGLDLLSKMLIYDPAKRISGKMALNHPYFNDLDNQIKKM
CDK1/Cyclin E1, sequence (P24864 whole entry partner): as the sequence (P24864 whole entry partner) above
CDK7, sequence (P50613 whole entry): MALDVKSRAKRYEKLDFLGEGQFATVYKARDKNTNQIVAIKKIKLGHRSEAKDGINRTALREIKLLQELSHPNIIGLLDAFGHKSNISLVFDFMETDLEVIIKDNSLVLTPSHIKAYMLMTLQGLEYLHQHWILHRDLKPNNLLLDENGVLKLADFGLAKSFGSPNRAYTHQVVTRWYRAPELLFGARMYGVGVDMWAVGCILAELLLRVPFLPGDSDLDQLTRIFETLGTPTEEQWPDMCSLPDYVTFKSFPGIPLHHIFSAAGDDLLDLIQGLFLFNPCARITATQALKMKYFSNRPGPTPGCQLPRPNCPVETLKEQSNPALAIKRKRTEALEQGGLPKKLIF

COc1ccccc1-c1cc(Nc2cccc(CS(N)(=O)=O)c2)ncn1 [LDC000067]
inhibition at 10 µM (CDK1/Cyclin E1; average): 31.6% | inhibition at 10 µM (CDK1/Cyclin E1; experiment 1): 30.7% | inhibition at 10 µM (CDK1/Cyclin E1; experiment 2): 32.5% | inhibition at 10 µM (CDK2/Cyclin E1; average): 18.7% | inhibition at 10 µM (CDK2/Cyclin E1; experiment 1): 15.1% | inhibition at 10 µM (CDK2/Cyclin E1; experiment 2): 22.2% | inhibition at 10 µM (CDK3/Cyclin E1; average): 27.7% | inhibition at 10 µM (CDK3/Cyclin E1; experiment 1): 23.7% | inhibition at 10 µM (CDK3/Cyclin E1; experiment 2): 31.7% | inhibition at 10 µM (CDK4/Cyclin D1; average): 44% | inhibition at 10 µM (CDK4/Cyclin D1; experiment 1): 41.2% | inhibition at 10 µM (CDK4/Cyclin D1; experiment 2): 46.7% | inhibition at 10 µM (CDK5/CDK5R1; average): 11.4% | inhibition at 10 µM (CDK5/CDK5R1; experiment 1): 17.5% | inhibition at 10 µM (CDK5/CDK5R1; experiment 2): 5.3% | inhibition at 10 µM (CDK7; average): -9.3% | inhibition at 10 µM (CDK7; experiment 1): -12.1% | inhibition at 10 µM (CDK7; experiment 2): -6.5% | inhibition at 10 µM (CDK8/Cyclin C; average): 5.3% | inhibition at 10 µM (CDK8/Cyclin C; experiment 1): 5.1% | inhibition at 10 µM (CDK8/Cyclin C; experiment 2): 5.6% | inhibition at 10 µM (CDK9/Cyclin K; average): 88.8% | inhibition at 10 µM (CDK9/Cyclin K; experiment 1): 87.2% | inhibition at 10 µM (CDK9/Cyclin K; experiment 2): 90.3% | inhibition at 10 µM (CDK11A/Cyclin L2; average): 7.5% | inhibition at 10 µM (CDK11A/Cyclin L2; experiment 1): 4.3% | inhibition at 10 µM (CDK11A/Cyclin L2; experiment 2): 10.7% | inhibition at 10 µM (CDK11B/Cyclin L2; average): 10.2% | inhibition at 10 µM (CDK11B/Cyclin L2; experiment 1): 9.7% | inhibition at 10 µM (CDK11B/Cyclin L2; experiment 2): 10.7% | inhibition at 10 µM (CDK12/Cyclin K; average): 22.1% | inhibition at 10 µM (CDK12/Cyclin K; experiment 1): 7% | inhibition at 10 µM (CDK12/Cyclin K; experiment 2): 37.2% | inhibition at 10 µM (CDK13/Cyclin K; average): 10.2% | inhibition at 10 µM (CDK13/Cyclin K; experiment 1): 7.7% | inhibition at 10 µM (CDK13/Cyclin K; experiment 2): 12.8% | inhibition at 10 µM (CDK14/Cyclin Y; average): -2.3% | inhibition at 10 µM (CDK14/Cyclin Y; experiment 1): -0.216% | inhibition at 10 µM (CDK14/Cyclin Y; experiment 2): -4.4% | inhibition at 10 µM (CDK15/Cyclin Y; average): -1% | inhibition at 10 µM (CDK15/Cyclin Y; experiment 1): 3% | inhibition at 10 µM (CDK15/Cyclin Y; experiment 2): -5% | inhibition at 10 µM (CDK16/Cyclin Y; experiment 1): 17% | inhibition at 10 µM (CDK16/Cyclin Y; experiment 2): 12.6% | inhibition at 10 µM (CDK17/Cyclin Y; average): 19% | inhibition at 10 µM (CDK17/Cyclin Y; experiment 1): 20.7% | inhibition at 10 µM (CDK17/Cyclin Y; experiment 2): 17.3% | inhibition at 10 µM (CDK20/Cyclin H; experiment 1): 11.2% | inhibition at 10 µM (CDK20/Cyclin H; experiment 2): 17.8% | inhibition at 10 µM (CDK19/Cyclin C; average): 11.4% | inhibition at 10 µM (CDK19/Cyclin C; experiment 1): 16.6% | inhibition at 10 µM (CDK19/Cyclin C; experiment 2): 6.1% | inhibition at 10 µM (CDK10/Cyclin L2; average): 6.6% | inhibition at 10 µM (CDK10/Cyclin L2; experiment 1): 10.2% | inhibition at 10 µM (CDK10/Cyclin L2; experiment 2): 3.1%

Reference: publication PMC7265341, “Quantifying CDK inhibitor selectivity in live cells” (Nature Communications, 2020)
